In patent US20110230481A2, “DERIVATIVES OF TETRABROMOBENZIMIDAZOLE, A PROCESS FOR THE PREPARATION THEREOF, A PHARMACEUTICAL COMPOSITION COMPRISING THE SAME, A METHOD OF USING THE SAME, A METHOD FOR MODULATING OR REGULATING SERINE/THREONINE KINASES, AND SERINE/THREONINE KINASES MODULATING AGENT” (SELVITA S.A., priority 2009, published 2011):

Tests used:
Experiment in all cases: KINOMEscan Max
Type in all cases: binding
[1] = biological target: ABL1(T315I)-nonphosphorylated (Homo sapiens, UniProt P00519, T315I)
How it was run: (§1)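 Immobilized active-site directed ligand captures DNA-tagged kinase unless test compound competes it off; captured kinase is then quantified by qPCR of the DNA tag.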

ACVR1B = ACVR1B (Homo sapiens, UniProt P36896)
How it was run: as §1

CAMK2A = CAMK2A (Homo sapiens, UniProt Q9UQM7)
How it was run: as §1

CDK11 = CDK11 (Homo sapiens, UniProt Q9BWU1); conditions: 1 μM
How it was run: as §1

CSNK1A1 = biological target: T1, CSNK1A1 (Homo sapiens, UniProt P48729)
T1 construct: DNA tag (qPCR read-out)
How it was run: as §1

CSNK1G1 = biological target: T2, CSNK1G1 (Homo sapiens, UniProt Q9HCP0); conditions: 1 μM
T2 construct: purchased Ambit (KINOMEscan Max panel service)
How it was run: as §1

CSNK1G3 = CSNK1G3 (Homo sapiens, UniProt Q9Y6M4); conditions: 1 μM
How it was run: as §1

DAPK3 = DAPK3 (Homo sapiens, UniProt O43293)
How it was run: as §1

EGFR(E746-A750del) = biological target: T3, EGFR(E746-A750del) (Homo sapiens, UniProt P00533, DEL746-750); conditions: 1 μM
T3 construct: purchased Ambit (KINOMEscan Max service)
How it was run: as §1

EGFR(L858R) = EGFR(L858R) (Homo sapiens, UniProt P00533, L858R); conditions: 1 μM
How it was run: as §1

EPHA4 = biological target: T4, EPHA4 (Homo sapiens, UniProt P54764)
T4 construct: purchased Ambit (KINOMEscan Max panel service)
How it was run: as §1

EPHB6 = EPHB6 (Homo sapiens, UniProt O15197)
How it was run: as §1

ERBB3 = biological target: T5, ERBB3 (Homo sapiens, UniProt P21860)
T5 construct: purchased Ambit (KINOMEscan Max service)
How it was run: as §1

FAK = biological target: T6, FAK (Homo sapiens, UniProt Q05397)
T6 construct: DNA tag (qPCR read-out)
How it was run: as §1

FGFR3(G697C) = biological target: T7, FGFR3(G697C) (Homo sapiens, UniProt P22607, G697C)
T7 construct: purchased Ambit Kinomescan (contract panel, KINOMEscan Max)
How it was run: as §1

GRK7 = biological target: T8, GRK7 (Homo sapiens, UniProt Q8WTQ7)
T8 construct: purchased Ambit Kinomescan (contract panel, KINOMEscan Max)
How it was run: as §1

JNK3 = biological target: T9, JNK3 (Homo sapiens, UniProt P53779); conditions: 1 μM
T9 construct: purchased Ambit Kinomescan (contract panel)
How it was run: as §1

KIT(V559D.V654A) = biological target: T10, KIT(V559D.V654A) (Homo sapiens, UniProt P10721, V559D/V654A)
T10 construct: purchased Ambit Kinomescan (contract panel)
How it was run: as §1

LCK = biological target: T11, LCK (Homo sapiens, UniProt P06239)
T11 construct: purchased Ambit Kinomescan (contract panel)
How it was run: as §1

LIMK1 = LIMK1 (Homo sapiens, UniProt P53667)
How it was run: as §1

LRRK2(G2019S) = biological target: T12, LRRK2(G2019S) (Homo sapiens, UniProt Q5S007, G2019S)
T12 construct: purchased Ambit (KINOMEscan Max service)
How it was run: as §1

MAP4K5 = MAP4K5 (Homo sapiens, UniProt Q9Y4K4)
How it was run: as §1

MAPKAPK2 = biological target: T13, MAPKAPK2 (Homo sapiens, UniProt P49137)
T13 construct: purchased Ambit Kinomescan (contract panel)
How it was run: as §1

MST2 = MST2 (Homo sapiens, UniProt Q13188)
How it was run: as §1

PAK6 = PAK6 (Homo sapiens, UniProt Q9NQU5)
How it was run: as §1

PFCDPK1(P.falciparum) = biological target: T14, PFCDPK1(P.falciparum) (Plasmodium falciparum, UniProt P62344)
T14 construct: purchased Ambit Kinomescan (contract screening)
How it was run: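 Binding was measured by competition: compounds were tested for their ability to displace DNA-tagged kinases from an immobilized ligand directed at the active site, with quantitative PCR of the tag as read-out.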

PIK3CA(E545A) = biological target: T15, PIK3CA(E545A) (Homo sapiens, UniProt P42336, E545A)
T15 construct: purchased Ambit Kinomescan (contract screening)
How it was run: as §1

RIPK4 = biological target: T16, RIPK4 (Homo sapiens, UniProt P57078)
T16 construct: DNA tag (qPCR read-out)
How it was run: as §1

RIPK5 = biological target: T17, RIPK5 (Homo sapiens, UniProt Q6XUX3)
T17 construct: DNA tag (qPCR read-out)
How it was run: as §1

SLK = SLK (Homo sapiens, UniProt Q9H2G2)
How it was run: as §1

TAOK1 = biological target: T18, TAOK1 (Homo sapiens, UniProt Q7L7X3)
T18 construct: DNA tag (qPCR read-out)
How it was run: as §1

TIE1 = biological target: T19, TIE1 (Homo sapiens, UniProt P35590)
T19 construct: purchased Ambit Kinomescan (contract screening service)
How it was run: as §1

TXK = TXK (Homo sapiens, UniProt P42681)
How it was run: as §1

ULK3 = biological target: T20, ULK3 (Homo sapiens, UniProt Q6PHR2); conditions: 1 μM
T20 construct: purchased Ambit Kinomescan (contract screening service)
How it was run: as §1

T13 sequence (P49137 whole entry): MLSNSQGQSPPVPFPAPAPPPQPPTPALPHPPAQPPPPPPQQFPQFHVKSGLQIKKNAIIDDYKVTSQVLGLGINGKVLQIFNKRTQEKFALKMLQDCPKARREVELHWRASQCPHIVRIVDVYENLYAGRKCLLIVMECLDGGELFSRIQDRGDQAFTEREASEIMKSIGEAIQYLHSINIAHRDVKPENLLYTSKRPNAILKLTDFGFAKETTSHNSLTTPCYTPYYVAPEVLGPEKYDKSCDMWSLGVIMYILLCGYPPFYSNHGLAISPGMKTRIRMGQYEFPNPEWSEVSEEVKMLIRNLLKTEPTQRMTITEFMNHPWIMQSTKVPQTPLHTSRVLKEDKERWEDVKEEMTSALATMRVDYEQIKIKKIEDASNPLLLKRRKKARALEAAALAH
T4 sequence (P54764 20-986): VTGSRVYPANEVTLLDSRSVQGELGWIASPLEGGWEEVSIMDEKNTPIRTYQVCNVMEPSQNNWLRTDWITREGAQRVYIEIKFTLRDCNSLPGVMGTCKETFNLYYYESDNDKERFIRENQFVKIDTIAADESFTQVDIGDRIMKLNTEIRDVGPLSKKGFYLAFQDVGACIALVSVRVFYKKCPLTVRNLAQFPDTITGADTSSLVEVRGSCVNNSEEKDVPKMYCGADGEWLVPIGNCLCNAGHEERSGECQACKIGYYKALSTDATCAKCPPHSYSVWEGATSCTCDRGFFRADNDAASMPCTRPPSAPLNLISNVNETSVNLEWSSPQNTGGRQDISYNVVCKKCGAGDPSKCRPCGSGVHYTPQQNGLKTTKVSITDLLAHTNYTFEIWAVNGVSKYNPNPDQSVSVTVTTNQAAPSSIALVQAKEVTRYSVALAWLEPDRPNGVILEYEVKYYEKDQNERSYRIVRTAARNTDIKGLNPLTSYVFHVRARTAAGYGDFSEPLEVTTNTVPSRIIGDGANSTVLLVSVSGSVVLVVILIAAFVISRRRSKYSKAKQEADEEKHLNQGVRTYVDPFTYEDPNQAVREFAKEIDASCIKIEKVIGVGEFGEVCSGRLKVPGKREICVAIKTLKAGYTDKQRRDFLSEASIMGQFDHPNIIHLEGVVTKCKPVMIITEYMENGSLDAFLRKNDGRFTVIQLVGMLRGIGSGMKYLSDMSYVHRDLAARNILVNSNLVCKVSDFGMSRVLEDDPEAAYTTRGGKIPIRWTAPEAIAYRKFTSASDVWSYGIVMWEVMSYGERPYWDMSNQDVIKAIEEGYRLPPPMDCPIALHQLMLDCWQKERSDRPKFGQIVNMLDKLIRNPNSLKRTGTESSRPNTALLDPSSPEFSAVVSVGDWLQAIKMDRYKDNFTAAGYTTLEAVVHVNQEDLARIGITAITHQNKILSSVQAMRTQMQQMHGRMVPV
T16 sequence (P57078 whole entry): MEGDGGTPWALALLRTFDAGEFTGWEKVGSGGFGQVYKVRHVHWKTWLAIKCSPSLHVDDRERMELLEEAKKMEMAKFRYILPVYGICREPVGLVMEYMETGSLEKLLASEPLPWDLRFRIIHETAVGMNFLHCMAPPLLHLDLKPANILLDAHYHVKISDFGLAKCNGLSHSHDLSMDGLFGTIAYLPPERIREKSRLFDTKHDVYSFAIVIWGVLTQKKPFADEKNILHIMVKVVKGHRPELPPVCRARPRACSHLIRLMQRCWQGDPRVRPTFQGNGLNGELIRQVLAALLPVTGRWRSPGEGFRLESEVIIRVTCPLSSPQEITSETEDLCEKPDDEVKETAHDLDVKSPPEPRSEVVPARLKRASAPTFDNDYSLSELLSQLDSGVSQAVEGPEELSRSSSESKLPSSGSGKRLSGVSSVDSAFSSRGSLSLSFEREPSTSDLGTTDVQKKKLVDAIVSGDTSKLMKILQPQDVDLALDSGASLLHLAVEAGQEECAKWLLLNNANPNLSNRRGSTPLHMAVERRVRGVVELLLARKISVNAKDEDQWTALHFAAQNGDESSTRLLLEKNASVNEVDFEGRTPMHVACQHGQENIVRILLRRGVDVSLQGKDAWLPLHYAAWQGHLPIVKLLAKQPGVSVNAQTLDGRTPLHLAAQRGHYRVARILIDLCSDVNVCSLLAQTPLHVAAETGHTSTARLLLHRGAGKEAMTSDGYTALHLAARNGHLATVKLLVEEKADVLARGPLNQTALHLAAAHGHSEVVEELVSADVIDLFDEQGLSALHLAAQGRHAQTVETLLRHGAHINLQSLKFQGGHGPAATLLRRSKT
T19 sequence (P35590 22-1138): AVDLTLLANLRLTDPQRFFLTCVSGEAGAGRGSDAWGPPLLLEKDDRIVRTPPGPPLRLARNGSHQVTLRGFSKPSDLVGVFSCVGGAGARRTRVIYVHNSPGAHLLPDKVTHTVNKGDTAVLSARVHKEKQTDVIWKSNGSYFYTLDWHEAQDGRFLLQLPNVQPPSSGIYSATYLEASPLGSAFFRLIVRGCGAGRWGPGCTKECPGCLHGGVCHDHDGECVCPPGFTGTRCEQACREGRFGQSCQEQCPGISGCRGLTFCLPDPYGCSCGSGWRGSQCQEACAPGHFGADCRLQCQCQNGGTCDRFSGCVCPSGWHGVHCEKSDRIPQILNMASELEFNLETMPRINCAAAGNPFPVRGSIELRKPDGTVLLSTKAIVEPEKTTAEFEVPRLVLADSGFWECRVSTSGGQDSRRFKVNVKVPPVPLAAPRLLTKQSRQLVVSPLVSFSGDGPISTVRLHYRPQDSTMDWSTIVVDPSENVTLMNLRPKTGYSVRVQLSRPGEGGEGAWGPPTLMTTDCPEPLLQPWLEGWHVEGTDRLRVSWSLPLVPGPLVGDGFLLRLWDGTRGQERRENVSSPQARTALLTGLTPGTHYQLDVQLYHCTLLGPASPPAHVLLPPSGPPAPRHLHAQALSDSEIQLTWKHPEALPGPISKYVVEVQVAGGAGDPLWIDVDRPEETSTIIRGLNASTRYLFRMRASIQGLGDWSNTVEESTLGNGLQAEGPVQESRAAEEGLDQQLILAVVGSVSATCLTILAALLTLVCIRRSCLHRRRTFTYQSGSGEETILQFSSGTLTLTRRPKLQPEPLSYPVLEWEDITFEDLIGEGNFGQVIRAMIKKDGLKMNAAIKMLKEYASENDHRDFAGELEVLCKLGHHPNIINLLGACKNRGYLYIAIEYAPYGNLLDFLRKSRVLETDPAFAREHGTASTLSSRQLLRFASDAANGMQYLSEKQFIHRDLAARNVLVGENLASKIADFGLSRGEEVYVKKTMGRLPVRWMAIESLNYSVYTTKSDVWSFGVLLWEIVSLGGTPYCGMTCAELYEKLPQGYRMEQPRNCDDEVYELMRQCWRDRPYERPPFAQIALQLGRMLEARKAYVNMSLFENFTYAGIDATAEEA
T11 sequence (P06239 whole entry): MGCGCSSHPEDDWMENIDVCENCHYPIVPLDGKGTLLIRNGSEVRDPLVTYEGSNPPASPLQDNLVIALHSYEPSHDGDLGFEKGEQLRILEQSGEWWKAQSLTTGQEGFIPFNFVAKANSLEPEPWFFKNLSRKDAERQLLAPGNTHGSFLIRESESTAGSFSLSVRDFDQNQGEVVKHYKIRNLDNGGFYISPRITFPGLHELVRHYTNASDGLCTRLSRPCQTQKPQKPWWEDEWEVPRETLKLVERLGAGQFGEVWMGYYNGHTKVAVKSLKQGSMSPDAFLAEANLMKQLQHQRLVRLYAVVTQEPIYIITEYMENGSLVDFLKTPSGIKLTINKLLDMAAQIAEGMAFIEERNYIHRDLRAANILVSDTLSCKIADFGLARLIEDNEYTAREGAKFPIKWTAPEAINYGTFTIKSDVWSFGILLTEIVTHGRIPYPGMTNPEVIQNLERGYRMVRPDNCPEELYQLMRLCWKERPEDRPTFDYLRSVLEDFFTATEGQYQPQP
T3 sequence (P00533 with tags, fused parts or gaps DEL746-750): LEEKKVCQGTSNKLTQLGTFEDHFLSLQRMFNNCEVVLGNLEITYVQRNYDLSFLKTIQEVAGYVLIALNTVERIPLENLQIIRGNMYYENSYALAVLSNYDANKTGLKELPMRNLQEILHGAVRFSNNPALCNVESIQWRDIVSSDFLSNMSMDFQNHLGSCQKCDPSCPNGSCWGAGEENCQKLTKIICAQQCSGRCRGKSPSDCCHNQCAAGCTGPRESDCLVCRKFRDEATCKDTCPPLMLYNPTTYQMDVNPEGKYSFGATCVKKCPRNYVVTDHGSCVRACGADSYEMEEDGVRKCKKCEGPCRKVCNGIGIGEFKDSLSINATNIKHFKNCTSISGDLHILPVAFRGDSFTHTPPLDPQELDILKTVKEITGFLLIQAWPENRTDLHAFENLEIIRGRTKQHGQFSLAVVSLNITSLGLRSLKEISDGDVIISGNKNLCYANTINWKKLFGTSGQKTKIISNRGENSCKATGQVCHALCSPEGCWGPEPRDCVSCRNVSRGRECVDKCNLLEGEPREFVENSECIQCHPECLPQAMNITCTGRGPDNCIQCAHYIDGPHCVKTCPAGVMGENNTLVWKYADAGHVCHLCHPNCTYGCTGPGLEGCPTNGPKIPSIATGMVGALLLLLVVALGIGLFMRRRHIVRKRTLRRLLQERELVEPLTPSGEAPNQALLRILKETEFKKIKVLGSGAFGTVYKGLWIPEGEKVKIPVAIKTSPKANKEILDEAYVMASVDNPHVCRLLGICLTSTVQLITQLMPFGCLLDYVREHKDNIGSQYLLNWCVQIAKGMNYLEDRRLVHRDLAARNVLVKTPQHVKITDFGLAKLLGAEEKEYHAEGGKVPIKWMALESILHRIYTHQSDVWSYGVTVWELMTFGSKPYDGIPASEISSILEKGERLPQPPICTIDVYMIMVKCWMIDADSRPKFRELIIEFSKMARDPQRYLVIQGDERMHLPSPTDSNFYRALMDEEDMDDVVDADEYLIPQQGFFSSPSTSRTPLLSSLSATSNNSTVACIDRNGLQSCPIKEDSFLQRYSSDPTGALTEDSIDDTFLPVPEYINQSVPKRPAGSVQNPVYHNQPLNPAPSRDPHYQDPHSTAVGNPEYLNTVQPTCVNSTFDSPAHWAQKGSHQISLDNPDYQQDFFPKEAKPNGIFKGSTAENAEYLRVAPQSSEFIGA

In the case of `NCCCNc1nc2c(Br)c(Br)c(Br)c(Br)c2[nH]1` [Compound 11, N-(3-aminopropyl)-4,5,6,7-tetrabromo-1H-benzo[d]imidazol-2-amine], the remaining binding at 1 µM [1] is reported as 100%, the remaining binding at 1 µM (ACVR1B) is reported as 100% and the remaining binding at 1 µM (CAMK2A) is reported as 96%. For the same molecule, the “% binding” value (CDK11) was 74%, the remaining binding at 1 µM (CSNK1A1) was 35% and the “% binding” value (CSNK1G1) was 100%. The “% binding” value (CSNK1G3) was 92%, the remaining binding at 1 µM (DAPK3) was 73% and the “% binding” value (EGFR(E746-A750del)) was 72%. The “% binding” value (EGFR(L858R)) was 96%, the remaining binding at 1 µM (EPHA4) was 100% and the remaining binding at 1 µM (EPHB6) was 95%. For the same molecule, the remaining binding at 1 µM (ERBB3) was 68%, the remaining binding at 1 µM (FAK) was 89% and the remaining binding at 1 µM (FGFR3(G697C)) was 100%. For the same molecule, the remaining binding at 1 µM (GRK7) was 100%, the “% binding” value (JNK3) was 100% and the remaining binding at 1 µM (KIT(V559D.V654A)) was 100%. The remaining binding at 1 µM (LCK) was 100%, the remaining binding at 1 µM (LIMK1) was 96% and the remaining binding at 1 µM (LRRK2(G2019S)) was 70%. For the same molecule, the remaining binding at 1 µM (MAP4K5) was 98%, the remaining binding at 1 µM (MAPKAPK2) was 100% and the remaining binding at 1 µM (MST2) was 100%. It also gave a remaining binding at 1 µM (PAK6) of 99%, a remaining binding at 1 µM (PFCDPK1(P.falciparum)) of 96% and a remaining binding at 1 µM (PIK3CA(E545A)) of 96%. The remaining binding at 1 µM (RIPK4) was 100%, the remaining binding at 1 µM (RIPK5) was 100% and the remaining binding at 1 µM (SLK) was 92%. It also gave a remaining binding at 1 µM (TAOK1) of 100%, a remaining binding at 1 µM (TIE1) of 100% and a remaining binding at 1 µM (TXK) of 93%. For the same molecule, the “% binding” value (ULK3) was 100%.
